According to article PMC7423924, “A fluorogenic cyclic peptide for imaging and quantification of drug-induced apoptosis” (Nature Communications, 2020):
“And” between values parts separate entries of the source, which are not always exact repeats. Equal values may be shown once.

What was measured:
human neutrophils = experiment: CDKi-induced, caspase-dependent neutrophil apoptosis detected with Apo-15; assay type: cell-based; details: R-roscovitine 20 µM (CDKi), QVD 10 μM, single replicates Data 1-4
Method: First, we confirmed that Apo-15 could detect CDKi-induced apoptosis in vitro. […] Apo-15 staining of CDKi-induced apoptosis was also caspase-dependent as confirmed by a significant reduction in the fluorescent signal after treatment with the caspase inhibitor QVD[34] (Fig. 5a). Next, we induced ALI in vivo in mice by intratracheal administration of E. coli-derived LPS (1 μg per mouse), and the apoptotic load in the lungs relative to saline control was increased by intraperitoneal administration of CDKi AT7519[38] (Fig. 5b). In all mice, we administered Apo-15 in vivo and, 30 min later, we collected bronchoalveolar lavage fluid (BALF) together with lung tissues. BALF and lung slices from LPS-only and LPS + CDKi mice were analyzed by multiparameter flow cytometry to determine the proportion of apoptotic cells that had been stained by Apo-15 in vivo (gating strategy in Supplementary Fig. 15). […] Furthermore, we quantified the effects of CDKi-induced apoptosis in vivo by measuring the percentages of apoptotic neutrophils in total cell counts. […] We confirmed that CD45 + Ly6G+ cells labeled by Apo-15 in vivo were apoptotic by co-staining with AF647-Annexin V ex vivo (Fig. 5d). Next, we acquired fluorescence microscopy images of lung tissue sections from mice under different regimes (Fig. 5c, e). […]

[1] = parameters: method as in 2 sources, ref Table 1 ||| ref [8],[60],[19],[61],[63],[64],[66],[67] = [8]; PMID 19966809; doi:10.1038/nmeth.1405; 8. Kim YE Chen J Chan JR Langen R Engineering a polarity-sensitive biosensor for time-lapse imaging of apoptotic processes and degeneration Nat. Methods 2010 7 67 73 19966809 10.1038/nmeth.1405 PMC284 || [60]; PMID 20671723; doi:10.1038/nprot.2010.101; 60. Kim YE Chen J Langen R Chan JR Monitoring apoptosis and neuronal degeneration by real-time detection of phosphatidylserine externalization using a polarity-sensitive indicator of viability and apo || [19]; PMID 17051335; doi:10.1007/s10495-006-0282-7; 19. Aloya R Molecular imaging of cell death in vivo by a novel small molecule probe Apoptosis 2006 11 2089 2101 17051335 10.1007/s10495-006-0282-7 PMC2782107 || [61]; PMID 16317537; doi:10.1007/s00259-005-1905-x; 61. Damianovich M ApoSense: a novel technology for functional molecular imaging of cell death in models of acute renal tubular necrosis Eur. J. Nucl. Med. Mol. Imaging 2006 33 281 291 16317537 10.1007 || [63]; PMID 15113694; doi:10.1016/j.ab.2004.01.020; 63. Garcia Fernandez MI Ceccarelli D Muscatello U Use of the fluorescent dye 10-N-nonyl acridine orange in quantitative and location assays of cardiolipin: a study on different experimental models Ana; details: cited from earlier work; for Brightness (φ × ε): Table 1, commercial probes, ref [8],[60],[19],[61],[63],[64],[66],[67]
apoptotic neutrophils = experiment: Signal-to-noise ratios in imaging of apoptotic neutrophils; assay type: cell-based, human; details: apoptotic cells, excitation 488 nm, same settings; response to reviewers
Method: Signal-to-noise ratios for apoptotic neutrophils labeled with FITC-Annexin V or Apo-15 were determined after image acquisition under the same laser power and gain and analysis using ImageJ. Briefly, raw images were converted into 16-bit grayscale images and average fluorescence intensities in labeled cells and in the background were measured (≥150 points per condition). Experiments were performed in triplicate.
Supplementary Figure 14. Quantification of the fluorescence signal-to-noise (S/N) ratios in apoptotic neutrophils after staining with Apo -15 (100 nM) or FITC-Annexin V (25 nM) and image acquisition under the same experimental conditions
(excitation/emission filters: 488 nm /525 nm). Data presented as mean values±SEM (n=3-4 independent cells from 3 independent experiments). Source data are provided […]
FIT C, AlexaFluor647). […]
In imaging experiment in mice, the fluorescence signals were not found along membranes in the cells. […]
First, we have included flow cytometric data from BALs of LPS-treated mice that were not given Apo- 15, which conf irm ed the lack of green fluorescence in viable CD45+CD11c+ Annexin V− macrophages (new Supplementary Figure 15 and new Supplementary Figure 18 for the results). […]

## CC[C@H](CO)Nc1nc(NCc2ccccc2)c2ncn(C(C)C)c2n1 [CDKi, R-roscovitine]
Human neutrophils
  Apo-15-positive cells (flow cytometry): 57.1 and 64.3 and 39.1 and 90.1

## CCCCCCCCC[n+]1c2cc(N(C)C)ccc2cc2ccc(N(C)C)cc21.[Br-] [Nonyl acridine orange]
[1]
  Brightness (φ × ε): 20,000

## CN(C)c1cccc2c(S(=O)(=O)N[C@@H](CSSC[C@H](NS(=O)(=O)c3cccc4c(N(C)C)cccc34)C(=O)O)C(=O)O)cccc12 [N,N′-Didansyl-L-cystin]
[1]
  Brightness (φ × ε): 3000
[1]; other environmentally-sensitive probes, ref Table 1
  Brightness: 3000 M⁻¹ cm⁻¹

## CC(C)[C@H](NC(=O)c1ccc2ccccc2n1)C(=O)N[C@@H](CC(=O)O)C(=O)COc1c(F)cccc1F [QVD]
Human neutrophils
  Apo-15-positive cells (flow cytometry): 3.0 and 7.0 and 2.9 and 4.0

## CC[N+](C)(CC)CCC[n+]1c(-c2ccccc2)c2cc(N)ccc2c2ccc(N)cc21.[I-].[I-] [PI, propidium iodide]
[1]
  Brightness (φ × ε): <100

B1: Annexin-FITC: FITC-labeled annexin V (protein, UniProt P08758 2-320, looked up)
Annexin A5: AQVLRGTVTDFPGFDERADAETLRKAMKGLGTDEESILTLLTSRSNAQRQEISAAFKTLFGRDLLDDLKSELTGKFEKLIVALMKPSRLYDAYELKHALKGAGTNEKVLTEIIASRTPEELRAIKQVYEEEYGSSLEDDVVGDTSGYYQRMLVVLLQANRDPDAGIDEAQVEQDAQALFQAGELKWGTDEEKFITIFGTRSVSHLRKVFDKYMTISGFQIEETIDRETSGNLEQLLLAVVKSIRSIPAYLAETLYYAMKGAGTDDHTLIRVMVSRSEIDLFNIRKEFRKNFATSLYSMIKGDTSGDYKKALLLLCGEDD
modifications: FITC label
notes: FITC-labeled annexin V
Apoptotic neutrophils
  Signal-to-noise ratio: ~100 fold
